This is an account of results in patent US20010053783A1, “PHARMACEUTICAL COMPOUNDS” (priority 1997, published 2001).

The structures appear in SMILES notation.

The assay addresses human 2A receptor (5-HT2A) (Homo sapiens, UniProt P28223). Kind of assay: 5-HT2A receptor binding, displacement of [3H] ketanserin (Nelson et al.). Particulars: human 2A receptor binding, versus 5-fluoroindolyl propyl comparator. The text has this: As mentioned above, the compounds of the invention are active at the serotonin, 5-HT2A, receptor.

human 2A receptor (5-HT2A), sequence (P28223 whole entry): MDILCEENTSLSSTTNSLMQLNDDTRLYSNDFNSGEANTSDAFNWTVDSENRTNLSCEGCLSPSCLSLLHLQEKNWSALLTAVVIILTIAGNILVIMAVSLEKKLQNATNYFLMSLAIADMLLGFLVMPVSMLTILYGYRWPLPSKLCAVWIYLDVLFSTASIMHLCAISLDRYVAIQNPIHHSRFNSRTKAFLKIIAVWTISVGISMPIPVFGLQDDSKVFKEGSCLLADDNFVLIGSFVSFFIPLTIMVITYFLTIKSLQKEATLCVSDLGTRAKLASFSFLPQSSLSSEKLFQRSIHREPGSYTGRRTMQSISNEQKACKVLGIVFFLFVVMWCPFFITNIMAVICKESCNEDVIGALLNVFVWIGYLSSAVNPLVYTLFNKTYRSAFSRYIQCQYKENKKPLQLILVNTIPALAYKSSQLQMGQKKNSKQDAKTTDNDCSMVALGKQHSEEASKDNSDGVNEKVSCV

In the case of `O=S1(=O)N(CCN2CC=C(c3c[nH]c4cc(F)ccc34)CC2)c2cccc3c2N1CCC3` [1-{2-[4-(6-Fluoro-[1H]-indol-3-yl)-1,2,3,6-tetrahydro-1-pyridinyl]-1-ethyl}-5,6-dihydro-1H,4H-1,2,5-thiadiazolo[4,3,2-ij]quinoline-2,2-dioxide], the “times more active than the closest structurally related compound of EP-A 0 433 149” value is “approximately twenty-eight”.
